Test results as given in paper PMC7127030 (Bioorganic & Medicinal Chemistry Letters, 2009).

What was measured:
[1] = target: T1, SCV Hel duplex DNA-unwinding activity (Severe acute respiratory syndrome coronavirus, UniProt P0C6X7); type: biochemical, SARS coronavirus
[2] = target: T1, SCV Hel duplex DNA-unwinding activity; conditions: read-out: IC50 SCV Hel duplex DNA-unwinding; cited from earlier work

Structure (SMILES)	inhibition of helicase duplex DNA-unwinding activity [1]	IC50 [2]
O=C(O)/C(O)=C/C(=O)c1cccc(OCc2ccccc2)c1 [Compound 3]	neither 2 nor 3 showed inhibition	
COc1cc(C23OC4(O)CC(O)(CC(O)(C4)O2)O3)ccc1O [vanillinbananin]		2700 nM
O=C(O)/C(O)=C/C(=O)c1ccc(OCc2ccc(Cl)cc2)cc1 [Compound 2]	neither 2 nor 3 showed inhibition	
